US12343319B2, “Compositions and methods for treatment of diseases and disorders” (Atai Therapeutics Inc., priority 2023, dated 2025)
Where two headings read alike, the source gives them in different places.

Assays:
5-HT2B = target: T1, 5-HT2B (Homo sapiens, UniProt P41595); test: IPOne, 5-HT2B; format: cell-based; conditions: for Emax: IPOne, human 5-HT2B, read-out: Emax (% α-Me-5-HT)
T1 construct: expressed in transfected cells
Experimental: (§1) In vitro pharmacology studies were performed to evaluate the effects of compound 2-1 on functional activity of several 5-HT receptors using recombinant target overexpression cell culture systems. The effect of compound 2-1 on G protein-dependent signaling was investigated at 5-HT2A, 5-HT2B, and 5-HT2C receptors with calcium mobilization and IPOne assays; and at 5-HT1A, 5-HT1B, 5-HT1F, 5-HT5A, and 5-HT7D receptors with a cAMP assay. G protein-independent signaling was investigated at the 5-HT2A receptor with a β-Arrestin assay.
(§2) In vitro pharmacology studies were performed to evaluate the effects of compound 2-2 on functional activity at several 5-HT receptors using recombinant target overexpression cell culture systems. The effect of compound 2-2 on G protein-dependent signaling was investigated at 5-HT2A, 5-HT2B, and 5-HT2C receptors with calcium mobilization and IPOne assays; and at 5-HT1A, 5-HT1B, 5-HT1F, 5-HT5A, and 5-HT7D receptors with a cAMP assay. G protein-independent signaling was investigated at the 5-HT2A receptor with a β-arrestin assay. […] In Table 4, 5-HT receptor selectivity was calculated using ΔΔlog(Emax/EC50). Assay reference α-Me-5-HT or 5-HT was used for normalization at each receptor (5-HT2A/5-HT2B selectivity=1; 5-HT2A/5-HT2C selectivity=1). ND in Table 4 indicates, not determined, plateau was not reached within the concentration range tested to determine Emax.

5-HT2A receptor = 5-HT2A receptor (Mus musculus, UniProt P35363); test: Mouse head twitch response (HTR); format: in vivo; set-up: endogenous in cells; host or cells: adult male C57BL/6J mice, in vivo; conditions: for ED50: mouse
Experimental: The head twitch response (HTR) assay in rodents is commonly used as a behavioral proxy for 5-HT2A receptor activation. For classical serotonergic psychedelics, mouse HTR potency correlates with potency of subjective effects in humans. The ability of compound 2-1 to induce HTR in mice was assessed using a validated and automated detection system. Briefly, adult male C57BL/6J mice surgically prepared with a small neodymium magnet (4.57 mm×4.57 mm×2.03 mm) attached to the cranium were injected intraperitoneally (i.p.) with single doses of compound 2-1 (0.3, 1, 3, 10, 30 mg/kg, based on weight of the free base) or 40% (w/v) 2-HPBCD (hydroxypropyl-beta-cyclodextrin) vehicle (n=5-6 mice per treatment). In a 5-HT2A receptor antagonism study, M100907, a 5-HT receptor antagonist (0.001, 0.01, 0.1 mg/kg, i.p.) was administered 20 minutes prior to compound 2-1. Immediately after compound 2-1 injection, the mouse was placed individually in a glass cylinder surrounded by a magnetometer coil. HTR were recorded for 30 minutes and analyzed using a validated technique based on artificial intelligence. […] In FIG. 1A, FIG. 1B, and FIG. 1C, HTR data were analyzed using a 1-way Analysis of Variance (ANOVA) followed by Dunnett's test **p<0.01, ***p<0.001, ****p<0.0001 vs. vehicle).
The HTR assay in rodents is commonly used as a behavioral proxy for 5-HT2A receptor activation. For classical serotonergic psychedelics, mouse HTR potency correlates with potency of subjective effects in humans. The ability of compound 2-2 to induce HTR in mice was assessed using a validated and automated detection system. Briefly, adult male C57BL/6J mice surgically prepared with a small neodymium magnet (4.57 mm×4.57 mm×2.03 mm) attached to the cranium were injected intraperitoneally (i.p.) with single doses of compound 2-2 (0.3, 1, 3, 10, 30 mg/kg, based on weight of the free base) or 40% (w/v) 2-HPBCD vehicle (n=5-6 mice per treatment). In a 5-HT2A receptor antagonism study, M100907 (0.001, 0.01, 0.1 mg/kg, i.p.) was administered 20 minutes prior to compound 2-2. Immediately after compound 2-2 injection, the mouse was placed individually in a glass cylinder surrounded by a magnetometer coil. HTR were recorded for 30 minutes and analyzed using a validated technique based on artificial intelligence. […] HTR were analyzed using a 1-way Analysis of Variance (ANOVA) followed by Dunnett's test (*p<0.05, **p<0.01, ***p<0.001, ****p<0.0001 vs. vehicle).

5-HT2C = target: T2, 5-HT2C (Homo sapiens, UniProt P28335); test: Ca++ (calcium mobilization), 5-HT2C; format: cell-based; conditions: for Emax: Ca++, human 5-HT2C, read-out: Emax (%5-HT)
T2 construct: expressed in transfected cells
T2 sequence (P28335 33-458): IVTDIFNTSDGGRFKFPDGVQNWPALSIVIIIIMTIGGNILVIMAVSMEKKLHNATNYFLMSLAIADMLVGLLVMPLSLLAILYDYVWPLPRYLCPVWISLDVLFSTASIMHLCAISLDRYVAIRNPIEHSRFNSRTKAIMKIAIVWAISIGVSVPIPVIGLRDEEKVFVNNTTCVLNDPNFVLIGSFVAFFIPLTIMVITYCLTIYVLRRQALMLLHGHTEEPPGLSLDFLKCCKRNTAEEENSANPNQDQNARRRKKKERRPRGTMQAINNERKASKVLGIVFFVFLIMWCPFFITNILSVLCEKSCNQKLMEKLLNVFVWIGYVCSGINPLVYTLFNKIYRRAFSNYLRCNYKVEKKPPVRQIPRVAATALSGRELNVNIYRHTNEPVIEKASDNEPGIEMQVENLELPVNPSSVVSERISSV
Experimental: as §1, §2

5-HT2A [1] = target: T3, 5-HT2A (Homo sapiens, UniProt P28223); test: IPOne, 5-HT2A; format: cell-based; set-up: expressed in transfected cells; conditions: for Emax: read-out: Emax (% α-Me-5-HT)
Experimental: as §1, §2

5-HT2A [2] = test: Ca++ (calcium mobilization), 5-HT2A; format: cell-based, human; conditions: Ca++, human; calculated using ΔΔlog(Emax/EC50), reference = 1
Experimental: as §1, §2

5-HT7D = target: T4, 5-HT7D (Homo sapiens, UniProt P34969); test: cAMP, 5-HT7D; format: cell-based
T4 construct: expressed in transfected cells
Experimental: as §1, §2

5-HT2A [3] = target: T3, 5-HT2A; test: Radioligand binding, 5-HT2A; set-up: expressed in transfected cells; conditions: for Max % inhibition: radioligand binding, human 5-HT2A
[4] = ip, C57BL/6J mice, 30 minutes, read-out: HTR 50% effective dose (ED50)

T3 sequence (P28223 whole entry): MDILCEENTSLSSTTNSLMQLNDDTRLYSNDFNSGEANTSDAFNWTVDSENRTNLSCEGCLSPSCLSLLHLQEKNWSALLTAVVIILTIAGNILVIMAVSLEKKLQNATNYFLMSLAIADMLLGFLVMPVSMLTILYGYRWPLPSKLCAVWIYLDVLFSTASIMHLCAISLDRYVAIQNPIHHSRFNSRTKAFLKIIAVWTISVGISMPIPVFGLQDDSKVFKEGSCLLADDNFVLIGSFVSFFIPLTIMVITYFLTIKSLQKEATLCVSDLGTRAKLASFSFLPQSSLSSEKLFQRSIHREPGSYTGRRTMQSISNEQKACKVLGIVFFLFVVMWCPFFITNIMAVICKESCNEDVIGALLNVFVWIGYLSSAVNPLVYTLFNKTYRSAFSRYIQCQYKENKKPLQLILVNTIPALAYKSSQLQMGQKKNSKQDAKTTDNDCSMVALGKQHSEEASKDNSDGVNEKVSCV
T1 sequence (P41595 whole entry): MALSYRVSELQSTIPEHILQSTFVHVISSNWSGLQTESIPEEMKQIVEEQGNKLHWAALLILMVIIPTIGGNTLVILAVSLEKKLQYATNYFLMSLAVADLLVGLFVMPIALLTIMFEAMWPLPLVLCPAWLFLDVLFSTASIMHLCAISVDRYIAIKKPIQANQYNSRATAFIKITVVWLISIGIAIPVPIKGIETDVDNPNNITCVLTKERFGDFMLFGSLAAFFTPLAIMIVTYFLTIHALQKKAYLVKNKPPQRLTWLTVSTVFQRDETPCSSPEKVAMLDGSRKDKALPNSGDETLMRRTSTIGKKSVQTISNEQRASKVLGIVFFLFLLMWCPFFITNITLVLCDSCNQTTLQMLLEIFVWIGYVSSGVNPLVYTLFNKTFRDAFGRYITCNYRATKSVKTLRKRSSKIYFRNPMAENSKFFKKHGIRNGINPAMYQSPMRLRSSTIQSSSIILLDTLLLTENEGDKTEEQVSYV
5-HT2A receptor, sequence (P35363 whole entry): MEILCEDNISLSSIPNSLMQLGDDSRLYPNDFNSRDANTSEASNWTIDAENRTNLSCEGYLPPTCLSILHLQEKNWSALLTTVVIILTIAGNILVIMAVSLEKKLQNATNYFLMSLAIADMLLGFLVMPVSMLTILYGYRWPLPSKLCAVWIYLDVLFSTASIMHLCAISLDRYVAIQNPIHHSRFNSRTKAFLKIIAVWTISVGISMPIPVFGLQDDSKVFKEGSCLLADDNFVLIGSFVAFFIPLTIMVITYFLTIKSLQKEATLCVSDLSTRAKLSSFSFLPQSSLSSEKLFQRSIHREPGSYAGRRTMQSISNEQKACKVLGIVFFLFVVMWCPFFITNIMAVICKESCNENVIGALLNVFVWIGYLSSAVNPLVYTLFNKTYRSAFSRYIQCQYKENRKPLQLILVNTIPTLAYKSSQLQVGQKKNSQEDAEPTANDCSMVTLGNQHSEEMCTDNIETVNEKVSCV
T4 sequence (P34969 whole entry): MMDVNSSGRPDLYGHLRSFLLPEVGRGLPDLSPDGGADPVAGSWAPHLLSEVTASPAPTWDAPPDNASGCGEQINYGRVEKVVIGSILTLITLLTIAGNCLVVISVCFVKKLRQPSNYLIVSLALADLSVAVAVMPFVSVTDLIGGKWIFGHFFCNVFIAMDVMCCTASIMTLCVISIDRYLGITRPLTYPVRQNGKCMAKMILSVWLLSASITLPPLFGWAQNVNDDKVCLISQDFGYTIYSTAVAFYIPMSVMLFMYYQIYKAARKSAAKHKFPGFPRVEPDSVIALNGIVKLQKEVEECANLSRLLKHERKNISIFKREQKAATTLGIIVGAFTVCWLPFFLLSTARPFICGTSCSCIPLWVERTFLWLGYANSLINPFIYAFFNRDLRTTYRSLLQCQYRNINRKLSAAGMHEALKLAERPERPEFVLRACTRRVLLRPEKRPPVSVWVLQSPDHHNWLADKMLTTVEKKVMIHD

Row | Compound | EC50 (5-HT2B) [nM] | Emax (5-HT2B) [%] | agonist activity (in words) (5-HT2B; human 5-HT2B receptor) | shape of HTR dose-response curve (5-HT2A receptor; 0.3-30 mg/kg i.p.) | HTR compared to vehicle (5-HT2A receptor; 3 and 10 mg/kg, i.p.) | HTR after M100907 pretreatment (5-HT2A receptor; M100907 0.001, 0.01, 0.1 mg/kg i.p. 20 minutes prior, compound i.p.) | ED50 (5-HT2A receptor; [4]) [mg/kg] | ED50 (5-HT2A receptor; po, mice, read-out: HTR ED50) [mg/kg] | HTR compared to vehicle (5-HT2A receptor; oral, 30 mg/kg) | EC50 (5-HT2C) [nM] | Emax (5-HT2C) [%] | EC50 (5-HT2A [1]) [nM] | Emax (5-HT2A [1]) [%] | 5-HT2A/5-HT2C Selectivity (5-HT2A [2]) | EC50 (5-HT7D) [nM] | IC50 (5-HT2A [3]) [nM] | Max % inhibition (5-HT2A [3]) [%]
1 | COc1ccc(OC)c(CCNCc2cc(C)cc(Cl)c2)c1 [Compound 2-1, N-(3-chloro-5-methylbenzyl)-2-(2,5-dimethoxyphenyl)ethan-1-amine] | 34.7 | 77.6 | full agonist activity | inverted “U”-shaped | significantly increased | significant dose-dependent attenuation | 1.7 | 15.7 | increased HTR significantly | 42.2 | 82 | 2.8 | 99.4 | 77 | > 100000 | 42.4 | 96.93
2 | COc1ccc(OC)c(CCNCc2cc(C)cc(F)c2)c1 [Compound 2-2, 2-(2,5-dimethoxyphenyl)-N-(3-fluoro-5-methylbenzyl)ethan-1-amine] | 81.1 | 49.3 | – | – | – | – | 3.2 | 13.7 | – | 73.5 | 88.2 | 9.19 | 97.9 | 56 | > 100000 | 105 | 99
